Experimental data published in patent publication US9376382B2, “N-substituted isopropyldimethyl azulene sulfonamide derivatives, and preparation method and use thereof” (Sichuan Guokang Pharmaceutical Co., Ltd., priority 2011, dated 2016).

What was measured:
[1] = High-temperature test (60° C.), stability study; format: physicochemical; settings: open-stored; for Appearance Day 5: Day 5, cell wraps; for Appearance Day 5 / Appearance Day 10: first line given; for Appearance Day 10: Day 10, cell wraps;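 on all read-outs here: samples kept uncovered in dishes at 60 °C for up to 10 days and examined on Day 5 and Day 10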
Experimental: (§1) The test samples were open-stored in culture dishes at 60° C. for 10 days, and taken and detected on Day 5 and Day 10. • The characteristics, especially colour change were observed. • Melting points were measured by automatic melting point apparatus. • By self-reflection, TLC is used to observe whether the spot numbers were increased after 5 days and 10 days.

[2] = High humidity test (25° C., relative humidity 90% ± 5%), stability study; format: physicochemical; settings: RH 90% ± 5%; for Appearance Day 0: Day 0, cell wraps; for Appearance Day 0 / Appearance Day 5 / Appearance Day 10: first line given; for Appearance Day 5: Day 5, cell wraps; for Appearance Day 10: Day 10, cell wraps;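 on all read-outs here: samples kept uncovered in sealed humidity desiccators, appearance judged mainly by colour change, melting point on an automatic apparatus, TLC checked for extra spots versus start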
Experimental: (§2) The test samples were open-stored in closed constant humidity desiccators under the condition of 25° C. and relative humidity of 90%+5% for 10 days, and taken and detected on Day 5 and Day 10. Meanwhile, each sample was accurately weighed before and after test.
The characteristics, especially colour change was observed.
Melting points were measured by an automatic melting point apparatus.
By self-reflection, TLC is used to observe whether the spot numbers were increased after 5 days and 10 days.

[3] = Intense light irradiation test (4500LX ± 500LX), stability study; format: physicochemical; settings: for Appearance Day 0: Day 0, cell wraps; for Appearance Day 0 / Appearance Day 5 / Appearance Day 10: first line given; for Appearance Day 5: Day 5, cell wraps; for Appearance Day 10: Day 10, cell wraps
Experimental: (§3) The test samples were open-stored in “adjustable light boxes” under the conditions of illumination of 4500LX±500LX for 10 days, and taken and detected on Day 5 and Day 10 with regards to dry items. • The characteristics, especially colour change was observed. • Melting points were measured by an automatic melting point apparatus. • By self-reflection, TLC is used to observe whether the spot numbers were increased after 5 days and 10 days.

[4] = Stability studies (light, humidity, heat), overall comparison; settings: summary of high-temperature, high humidity and intense light tests
Experimental: as §1, §2, §3

SMILES	Melting point Day 0 [1]	Spot numbers on TLC Day 0 [1]	Melting point Day 5 [1]	Spot numbers on TLC Day 5 [1]	Appearance Day 5 [1]	Melting point Day 10 [1]	Spot numbers on TLC Day 10 [1]	Appearance Day 10 [1]	Melting point Day 0 [2]	Spot numbers on TLC Day 0 [2]	hygroscopic rate (%) Day 0 [2] [%]	Appearance Day 0 [2]	Melting point Day 5 [2]	Spot numbers on TLC Day 5 [2]	hygroscopic rate (%) Day 5 [2] [%]	Appearance Day 5 [2]	Melting point Day 10 [2]	Spot numbers on TLC Day 10 [2]	Appearance Day 10 [2]	Melting point Day 0 [3]	also measured
Cc1cc(S(=O)(=O)NCC(C)C)c2c(C)ccc(C(C)C)cc1-2 [4e, N-isobutyl-3,8-dimethyl-5-isopropyl-1-azulene sulfonamide]	117.0-118.0 °C	1	117.5-118.5 °C	1	purple	117.5-118.5 °C	1	purple	117.0-118.0 °C	1	1.07	purple	116.5-118.5 °C	1	1.51	purple	116.5-118.5 °C	1	purple	117.0-118.0 °C	Spot numbers on TLC Day 0 [3]: 1; Appearance Day 0 [3]: purple; Melting point Day 5 [3]: 117.5-118.0 °C; Spot numbers on TLC Day 5 [3]: 1; Appearance Day 5 [3]: purple; Melting point Day 10 [3]: 115.0-117.5 °C; Spot numbers on TLC Day 10 [3]: 2; Appearance Day 10 [3]: purple; melting point: 117 to 118 °C; light, humidity and heat stability in words [4]: better light, humidity and heat stability than azulene sulfonate sodium
CCCNS(=O)(=O)c1cc(C)c2cc(C(C)C)ccc(C)c1-2 [4f, N-propyl-3,8-dimethyl-5-isopropyl-1-azulene sulfonamide]	59.5-62.5 °C	1	60.0-62.0 °C	1	purple	60.0-62.0 °C	1	purple	59.5-62.5 °C	1	1.13	purple	59.5-63.0 °C	1	1.28	purple	59.5-63.0 °C	1	purple	59.5-62.5 °C	Spot numbers on TLC Day 0 [3]: 1; Appearance Day 0 [3]: purple; Melting point Day 5 [3]: 58.5-62.0 °C; Spot numbers on TLC Day 5 [3]: 1; Appearance Day 5 [3]: purple; Melting point Day 10 [3]: 57.5-61.5 °C; Spot numbers on TLC Day 10 [3]: 2; Appearance Day 10 [3]: purple; melting point: 60 to 62 °C; light, humidity and heat stability in words [4]: better light, humidity and heat stability than azulene sulfonate sodium

Now from value to compound, other results behind:

Melting point Day 0 [1]	Spot numbers on TLC Day 0 [1]	Melting point Day 5 [1]	Spot numbers on TLC Day 5 [1]	Appearance Day 5 [1]	Melting point Day 10 [1]	Spot numbers on TLC Day 10 [1]	Appearance Day 10 [1]	Melting point Day 0 [2]	Spot numbers on TLC Day 0 [2]	hygroscopic rate (%) Day 0 [2] [%]	Appearance Day 0 [2]	Melting point Day 5 [2]	Spot numbers on TLC Day 5 [2]	hygroscopic rate (%) Day 5 [2] [%]	Appearance Day 5 [2]	Melting point Day 10 [2]	Spot numbers on TLC Day 10 [2]	Appearance Day 10 [2]	Melting point Day 0 [3]	SMILES	also measured
146.0-148.5 °C	1	146.0-148.0 °C	1	purple	145.5-147.5 °C	1	purple	146.0-148.5 °C	1	1.56	purple	145.5-148.5 °C	1	2.01	purple	145.5-148.5 °C	1	purple	146.0-148.5 °C	Cc1ccc(NS(=O)(=O)c2cc(C)c3cc(C(C)C)ccc(C)c2-3)cc1 [4g, N-(4-methylphenyl)-3,8-dimethyl-5-isopropyl-1-azulene sulfonamide]	Spot numbers on TLC Day 0 [3]: 1; Appearance Day 0 [3]: purple; Melting point Day 5 [3]: 145.0-147.5 °C; Spot numbers on TLC Day 5 [3]: 1; Appearance Day 5 [3]: purple; Melting point Day 10 [3]: 143.5-147.5 °C; Spot numbers on TLC Day 10 [3]: 2; Appearance Day 10 [3]: purple; melting point: 146 to 148 °C; light, humidity and heat stability in words [4]: better light, humidity and heat stability than azulene sulfonate sodium
123.5-125.5 °C	1	123.5-125.5 °C	1	blue	124.5-125.0 °C	1	blue	123.5-125.5 °C	1	1.14	blue	123.5-125.5 °C	1	2.11	blue	123.5-125.5 °C	1	blue	123.5-125.5 °C	CCNS(=O)(=O)c1cc(C)c2cc(C(C)C)ccc(C)c1-2 [4h, N-ethyl-3,8-dimethyl-5-isopropyl-1-azulene sulfonamide]	Spot numbers on TLC Day 0 [3]: 1; Appearance Day 0 [3]: blue; Melting point Day 5 [3]: 122.0-125.5 °C; Spot numbers on TLC Day 5 [3]: 1; Appearance Day 5 [3]: blue; Melting point Day 10 [3]: 121.0-126.0 °C; Spot numbers on TLC Day 10 [3]: 2; Appearance Day 10 [3]: blue; melting point: 96 to 98 °C; light, humidity and heat stability in words [4]: better light, humidity and heat stability than azulene sulfonate sodium
124.0-125.5 °C	1	124.0-125.5 °C	1	dark blue	124.0-125.5 °C	1	blue	124.0-126.0 °C	1	1.24	dark	124.0-126.5 °C	1	2.08	dark	124.5-126.5 °C	1	blue	124.0-125.5 °C	Cc1cc(S(=O)(=O)NCc2ccccc2)c2c(C)ccc(C(C)C)cc1-2 [4j, N-benzyl-3,8-dimethyl-5-isopropyl-1-azulene sulfonamide]	Spot numbers on TLC Day 0 [3]: 1; Appearance Day 0 [3]: dark blue; Melting point Day 5 [3]: 123.5-125.5 °C; Spot numbers on TLC Day 5 [3]: 1; Appearance Day 5 [3]: dark; Spot numbers on TLC Day 10 [3]: 2; Appearance Day 10 [3]: blue; melting point: 124 to 126 °C; light, humidity and heat stability in words [4]: better light, humidity and heat stability than azulene sulfonate sodium
